Results: patent US20110098177A1, “METHODS AND COMPOSITIONS OF PLANT MICRONUTRIENTS” (NOVUS INTERNATIONAL INC., priority 2006, published 2011)
Entries after “also recorded” stand apart in the source; their conditions may differ. Marks after values point to notes of the source that are not given here.

Key:
Format in all cases: in vivo
[1] = tested on: Aristotle bell pepper; test: Marketable yield per plant, greenhouse Fall 2007, bell pepper
Procedure: The following experiments were performed in a green house during the fall of 2007 at GCREC, Balm, University of Florida. Fifteen products, at 3 different application rates were examined. The plot size was 2-gallon pots. Crop set-up, procedures and variables were as follows.
Transplants of ‘Florida-47’ tomato and ‘Aristotle’ bell pepper plants in the 4-true leaf stage (about 6 inches tall) were planted in 2-gal pots on Aug. 27, 2007. Pots were filled with a commercially available planting medium. This medium was selected based on the mineral composition of the products to be applied without providing significant nutritional inputs to the crops. Irrigation was provided with drip lines delivering between 0.50 and 0.33 gal/day/pot for tomato and bell pepper, respectively, and the crops were irrigated three times per day. No foliar pesticides were necessary.
There were four control treatments corresponding to each target micronutrient in which non-Fe, non-Mn, non-Zn or non-Cu pots received all other essential nutrients under non-limiting conditions.
Treatments were applied at three rates (high, medium and low) obtained from the estimated concentration of Zn, Fe, Cu, and Mn foliarly-applied in tomato and bell pepper in field situations (Table 1). Products were weighed and dissolved in 200 ml of deionized water with a non-ionic surfactant and applied to the newly-matured open leaves of each crop at 3 and 7 weeks after transplant (WAT). Treated pots were isolated during application to avoid cross-contamination of other treatments.
Medium nutrient concentration was determined 1 week before treatment. The mineral composition of the medium was 26.8 ppm NH4—N, 49 ppm NO3—N, 15.8 ppm P, 91.2 ppm K, 82.3 ppm Ca, 58.2 ppm Mg, 23.9 ppm Na, 125.6 ppm S, 1.33 ppm Fe, 0.39 ppm Mn, 0.35 ppm Zn, 0.05 pp, Cu, 0.04 ppm B, 0 ppm Mo, 0.73 ppm Al, and 12.1 ppm Si. The pH of the medium was 5.36 and the electric conductivity was 1.38 mS/cm. The foliar tissue analysis was performed at 6 WAT and the concentration of N, P, K, Mg, Ca, S, B, Zn, Mn, Fe, and Cu was determined by a commercial laboratory. Plant toxicity was determined at 4 WAT by using a 0-10 visual scale, where 0=no visible damage and 10=total plant death. Marketable fruit weight was collected 2 times in bell pepper and 4 times in tomato following USDA standards.
Data were analyzed using a general linear model, and means were separated using orthogonal contrasts at the 5% significance level.

[2] = tested on: Patriot bell pepper plants; test: Foliar nutrient concentration at 6 WAT, open-field bell pepper (Examples 7-10); settings: 6 WAT, open field
Method in brief: (§1)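 Open-field 2008 trial, Balm FL; 'Tygress' tomato and 'Patriot' pepper transplants on drip-fed raised beds. Foliar micronutrient sprays at 3 and 5 WAT (BIOX-CM at 4 and 5), 60 gal/acre with surfactant. Youngest mature leaves sampled 6 WAT; RCBD, 5 replications, Fisher's LSD 5%.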

[3] = tested on: Tygress tomato plants; test: Foliar nutrient concentration at 6 WAT, open-field tomato (Examples 7-10); settings: 6 WAT, open field
Method in brief: as §1

[4] = tested on: Tygress tomato plants; test: Nutrient concentration of tomato fruits at 10 WAT, open field (Examples 7-10); settings: 10 WAT; open field; product rate as Table 17
Method in brief: as §1

CSCCC(O)C(=O)[O-].CSCCC(O)C(=O)[O-].[Zn+2] (stereo not shown) [BIOX-Z, Zn-HMTBA]
Marketable yield per plant, Pepper ([1]; foliar application at 3 and 7 WAT, rates not separated): 2.9* lb/plant
Bell pepper yield compared with control (in words) ([1]; foliar applications, P<0.05): significantly increased
Foliar Zn concentration of bell pepper plants compared to control, statement [2]: significantly higher foliar concentration of Zn
Foliar B concentration of bell pepper plants ([2]; product rate as Table 17): 62 ppm
Foliar Ca concentration of bell pepper plants ([2]; product rate as Table 17): 4.4%
Foliar Cu concentration of bell pepper plants ([2]; product rate as Table 17): 387 ppm
Foliar Fe concentration of bell pepper plants ([2]; product rate as Table 17): 121 ppm
Foliar K concentration of bell pepper plants ([2]; product rate as Table 17): 3.7%
Foliar Mg concentration of bell pepper plants ([2]; product rate as Table 17): 0.50%
Foliar Mn concentration of bell pepper plants ([2]; product rate as Table 17): 240 ppm
Foliar N concentration of bell pepper plants ([2]; product rate as Table 17): 4.2%
Foliar P concentration of bell pepper plants ([2]; product rate as Table 17): 0.25%
Foliar Zn concentration of bell pepper plants ([2]; product rate as Table 17): 220 a ppm
Foliar Zn concentration of tomato plants, statement [3]: highest foliar concentration of Zn; also recorded: significantly higher foliar Zn content
Foliar B concentration of tomato plants ([3]; product rate as Table 17): 59 ppm
Foliar Ca concentration of tomato plants ([3]; product rate as Table 17): 2.2%
Foliar Cu concentration of tomato plants ([3]; product rate as Table 17): 338 ppm
Foliar Fe concentration of tomato plants ([3]; product rate as Table 17): 76 ppm
Foliar K concentration of tomato plants ([3]; product rate as Table 17): 5.5%
Foliar Mg concentration of tomato plants ([3]; product rate as Table 17): 0.78%
Foliar Mn concentration of tomato plants ([3]; product rate as Table 17): 198 ppm
Foliar N concentration of tomato plants ([3]; product rate as Table 17): 4.7%
Foliar P concentration of tomato plants ([3]; product rate as Table 17): 0.21%
Foliar Zn concentration of tomato plants ([3]; product rate as Table 17): 434 a ppm
B concentration of tomato fruits [4]: 20 ppm
Ca concentration of tomato fruits [4]: 0.2%
Cu concentration of tomato fruits [4]: 21 ppm
Fe concentration of tomato fruits [4]: 82 ppm
K concentration of tomato fruits [4]: 8.0%
Mg concentration of tomato fruits [4]: 0.36%
Mn concentration of tomato fruits [4]: 38 ppm
N concentration of tomato fruits [4]: 4.3%
P concentration of tomato fruits [4]: 0.63%
Zn concentration of tomato fruits [4]: 308 ppm
